Test results published in patent US9670482B2, “Multispecific peptides” (BICYCLE THERAPEUTICS LIMITED, priority 2009, dated 2017).
Where two headings read alike, the source gives them in different places. Residues, ends and D or L forms follow the SMILES beside them. No end group written: not given here.

Assays:
[1] = target: Human Serum Albumin (HSA) (Homo sapiens, UniProt P02768); assay: Fluorescence anisotropy titration with HSA; format: binding; settings: 200 nM fluorophore; Hill equation; Kd cannot be determined accurately
[2] = target: bovine serum albumin (BSA) (Bos taurus, UniProt P02769); assay: Fluorescence anisotropy titration with BSA
Source text: For determining the affinity constant (Kd) of a fluorophore to target protein, we chose fluorescence anisotropy titrations.
Excitation was specific for coumarin (328 nm), and emission at 393 nm.
To determine whether a neighbouring group (here, Gly) on Fmoc affects binding to BSA, a similar experiment was run with Fmoc-Gly-OH (Nova Biochem). The intrinsic fluorescing properties of Fmoc were used for the anisotropy experiments.
To determine whether a neighbouring hydrophobic bulky group has an enhancing or adverse effect on BSA binding, Fmoc-Phe-OH was tested as above.
The solid phase resin employed was PAL-PEG-PS from Applied Biosystems. […] All peptides were capped with an N-terminal Fmoc, and a C-terminal amide (NH2). After cleavage, peptides were lyophilised, and solubilised in 5 mL of DMF. 100 μl of this was loaded onto an analytical C18 column using a Waters HPLC, using methanol and water (both in the presence of 0.1% TFA) as solvents. […] The peptide concentration in the cuvette was 200 nM.
Excitation was at 299 nm (to minimise Trp absorption), and emission at 320 nm. Slit widths were at 5 and 12 nm, respectively.
Peptide concentrations were estimated by the absorbance at 299 nm, using the extinction coefficient of 4700/M/cm. Excitation was at 299 nm, and emission was set to 320 nm, at slit widths of 5 and 12 nm, respectively.

Solubility in water = format: physicochemical
MDM2 (res 2-125) = target: T1, MDM2 (res 2-125) (Homo sapiens, UniProt Q00987); assay: Fluorescence anisotropy titration with MDM2; format: binding
T1 construct: made in house
Method: Titration experiments were run on a Horiba Jobin Yvon fluorimeter equipped with the Hamilton Microlab titrator controlled by laboratory software. The λex and λem used were 295 nm and 350 nm, respectively. The slit widths for excitation and emission were 5 nm and 15 nm and the integration time 10 s was used for each measurement. The intrinsic fluorescence of tryptophan in peptides 10, 48 was used to measure their binding affinity for MDM2 (res 2-125). The experiments were performed at 23 C.° in PBS, 5 mM DTT. Usually 250 ul of MDM2 (150 uM) was titrated into 1.2 ml of peptide (1 uM). Titration data were analyzed with a standard 1:1 binding model by using the quadratic solution to the equilibrium Kd=[A][B]/[AB]. […] The fitting equation contained an extra term to account for linear drift.
Mdm2 binds the complete PEP48 peptide with good affinity. We now determined whether Mdm2 binding is still functional within the Fmoc-Trp-linker-bicyclic derivative. 250 μL of 18.8 μM Mdm2 (expressed and purified as described in Teufel et al, PNAS 2007) was titrated into 1.2 ml of 500 nM peptide. A strong binding event occurred (Kd<1 μM), however, the data could not be fitted as the Kd was too far below the concentration of peptide employed in the experiment (FIG. 9). Lower concentrations of peptide could not be used due to technical limitations. Accurate determination of dissociation constants of this peptide to Mdm2 will require a better fluorophore than Fmoc (see above), or different methodologies such as isothermal titration calorimetry (ITC).

Kallikrein = target: T2, Kallikrein (Homo sapiens, UniProt P03952); assay: Kallikrein assays (Z-Phe-Arg-amc substrate); format: biochemical
T2 construct: purchased Sigma Aldrich
Method: Enzymes were purchased from Sigma Aldrich and substrates from Bachem A G. The assay buffer is composed of 10 mM Tris pH 7.4, 150 mM NaCl, 10 mM MgCl2, 1 mM CaCl2, 0.1% BSA, 0.01% Triton X100 and 5% DMSO. Enzymes are incubated with inhibitors for 30 minutes at RT prior to addition of substrate. All experiments were recorded at 30° C. for 90 minutes.
Assays were performed on a BMG Pherastar plate reader at wavelengths of exc/em 350/450 nm. Kallikrein was bought as a solution of 1080 μg/mL and diluted to a working concentration of 0.3 nM in assay buffer. Substrate Z-Phe-Arg-amc was solubilised at the stock concentration of 10 mM in DMSO and diluted to a working concentration of 300 μM with assay buffer. Inhibitors were solubilised in assay buffer to a stock concentration of 60 μM. 50 μL of each reagent is introduced in wells for a final volume of 150 μL per well. Final concentration of kallikrein in assay is 0.1 nM and substrate is 100 μM.
Final concentrations of inhibitors were: 0.5 nM, 1 nM, 2 nM, 5 nM, 8 nM, 10 nM, 20 nM, 50 nM, 80 nM, 100 nM, 200 nM, 500 nM, 800 nM, 1 μM, 2 μM, 5 μM, 8 μM, 10 μM and 20 μM. The initial rate of the reaction is obtained by plotting fluorescence=f (time) data and by fitting a linear trendline for each concentration of inhibitor. The inhibition curves are obtained by plotting initial rate=f ([I]) and IC50 values can be evaluated.

HCT116 cells = assay: Live cell imaging of peptide uptake, HCT116; format: cell-based, Human; settings: fluorescein-labelled TBMB conjugates, 10 μM
Method: Two cell lines, HeLa and HCT116, were used for these experiments. HeLa is a Human cervix epitheloid carcinoma and HCT116 is a Human colon carcinoma. Both cell types are widely available; for instance, HeLa cells are available from the UK HPA under catalogue number 93021013. HCT116 cells are available from the UK HPA under catalogue number 91091005.
Cells were seeded in Lab-Tek chambered borosilicate coverglass (Nunc). After culturing for 48 hrs (cells reached 40-60% confluency), media was removed and a fresh media supplemented with 10 μM of peptides was added to the cells. Cells were cultivated for a further 3.5 hrs or 24 hrs. At the end of the incubation time cells were washed 3×DMEM and finally resuspended in DMEM complete media supplemented with 10 mM HEPES buffer. Live cell imaging was performed on a laser scanning microscope (LSM 710, Zeiss), differential interference contrast (DIC) and fluorescent images were taken.
The cells were cultured in Dulbecco's Modified Eagle's Medium (DMEM, GIBCO) and supplemented with 10% (v/v) of heat-inactivated fetal bovine serum, 2 mM L-glutamine, 10 U/ml penicillin, and 100 ug/ml streptomycin (DMEM complete media) at 37° C. in a 5% CO2 atmosphere.

T1 sequence (Q00987 2-125): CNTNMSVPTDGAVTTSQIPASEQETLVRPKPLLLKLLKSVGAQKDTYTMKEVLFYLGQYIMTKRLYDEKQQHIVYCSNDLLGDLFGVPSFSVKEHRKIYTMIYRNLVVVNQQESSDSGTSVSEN
T2 sequence (P03952 20-638): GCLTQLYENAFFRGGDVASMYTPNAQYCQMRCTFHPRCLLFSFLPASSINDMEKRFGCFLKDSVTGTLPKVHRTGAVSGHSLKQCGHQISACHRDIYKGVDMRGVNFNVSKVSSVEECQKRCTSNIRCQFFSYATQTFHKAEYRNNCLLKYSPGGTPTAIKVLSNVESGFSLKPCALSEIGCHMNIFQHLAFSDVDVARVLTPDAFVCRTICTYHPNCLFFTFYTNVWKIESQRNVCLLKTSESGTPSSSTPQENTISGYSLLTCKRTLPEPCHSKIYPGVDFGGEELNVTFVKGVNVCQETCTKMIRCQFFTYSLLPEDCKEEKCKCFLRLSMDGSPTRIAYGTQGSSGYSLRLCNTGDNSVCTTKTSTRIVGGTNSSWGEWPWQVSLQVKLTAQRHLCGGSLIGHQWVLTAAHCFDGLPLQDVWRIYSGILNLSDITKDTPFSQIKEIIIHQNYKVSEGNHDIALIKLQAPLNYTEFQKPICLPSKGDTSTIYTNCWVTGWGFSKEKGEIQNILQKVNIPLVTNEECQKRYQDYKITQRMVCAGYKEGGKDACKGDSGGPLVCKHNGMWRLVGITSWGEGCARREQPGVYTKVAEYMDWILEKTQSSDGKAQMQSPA
Chain of bovine serum albumin (BSA) (P02769 25-607): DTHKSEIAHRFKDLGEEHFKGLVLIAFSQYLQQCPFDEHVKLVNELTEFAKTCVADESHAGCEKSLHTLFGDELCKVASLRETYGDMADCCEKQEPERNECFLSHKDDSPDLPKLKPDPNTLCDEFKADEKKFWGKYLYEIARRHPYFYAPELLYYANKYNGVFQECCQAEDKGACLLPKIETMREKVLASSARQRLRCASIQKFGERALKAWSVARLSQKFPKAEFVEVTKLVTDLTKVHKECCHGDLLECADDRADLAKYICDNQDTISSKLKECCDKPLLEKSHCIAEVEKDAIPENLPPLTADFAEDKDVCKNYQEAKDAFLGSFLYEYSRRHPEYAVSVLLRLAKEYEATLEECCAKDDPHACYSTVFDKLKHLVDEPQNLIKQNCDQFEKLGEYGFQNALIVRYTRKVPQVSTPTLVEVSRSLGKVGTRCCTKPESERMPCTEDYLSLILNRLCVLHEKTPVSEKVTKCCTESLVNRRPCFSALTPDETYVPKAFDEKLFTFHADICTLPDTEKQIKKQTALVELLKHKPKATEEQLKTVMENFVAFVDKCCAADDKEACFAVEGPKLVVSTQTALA
Chain of Human Serum Albumin (HSA) (P02768 25-609): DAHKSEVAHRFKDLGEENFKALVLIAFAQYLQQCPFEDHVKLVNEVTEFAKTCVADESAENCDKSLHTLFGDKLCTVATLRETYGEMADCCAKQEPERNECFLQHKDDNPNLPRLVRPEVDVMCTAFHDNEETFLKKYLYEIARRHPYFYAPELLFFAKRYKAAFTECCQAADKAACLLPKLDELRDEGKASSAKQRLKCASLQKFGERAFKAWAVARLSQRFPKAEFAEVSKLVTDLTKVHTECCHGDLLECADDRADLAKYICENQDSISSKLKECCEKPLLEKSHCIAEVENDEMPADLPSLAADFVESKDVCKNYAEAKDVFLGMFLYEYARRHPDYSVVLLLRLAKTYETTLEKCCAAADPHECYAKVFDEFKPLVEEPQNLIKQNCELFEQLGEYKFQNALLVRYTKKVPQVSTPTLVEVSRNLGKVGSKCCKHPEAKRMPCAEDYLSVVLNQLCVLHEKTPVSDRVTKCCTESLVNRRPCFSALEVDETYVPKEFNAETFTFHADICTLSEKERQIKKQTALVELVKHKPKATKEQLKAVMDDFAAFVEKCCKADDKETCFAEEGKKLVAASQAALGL

Molecule `O=C(NC(Cc1ccccc1)C(=O)O)OCC1c2ccccc2-c2ccccc21` (centres unmarked) [Fmoc-Phe-OH] has a Kd [1] of ~10 nM and a Kd [2] of ~100 nM.

For `CC(C)[C@@H]1NC(=O)[C@@H](NC(=O)[C@H](C)NC(=O)CNC(=O)CNC(=O)CNC(=O)[C@H](Cc2c[nH]c3ccccc23)NC(=O)OCC2c3ccccc3-c3ccccc32)CSCc2cc3cc(c2)CSC[C@H](NC(=O)[C@H]([C@@H](C)O)NC(=O)[C@H](Cc2c[nH]c4ccccc24)NC(=O)CNC(=O)[C@H](Cc2ccccc2)NC(=O)[C@H](CCCNC(=N)N)NC1=O)C(=O)N[C@@H](CO)C(=O)N[C@@H](CC(=O)O)C(=O)N[C@@H](CCCNC(=N)N)C(=O)N[C@@H](Cc1ccccc1)C(=O)N[C@@H](CCCNC(=N)N)C(=O)N[C@@H](CC(N)=O)C(=O)N[C@H](C(=O)NCC(N)=O)CSC3` [FmocPEP48L1-PK15L1 bicyclic] (HELM PEPTIDE1{[O=C(OCC1c2ccccc2-c2ccccc21)[*:2]].W.G.G.G.A.C.V.R.F.G.W.T.C.S.D.R.F.R.N.C.G.[am]}|CHEM1{[c1c(C[*:1])cc(C[*:3])cc1C[*:2]]}$PEPTIDE1,CHEM1,7:R3-1:R1|PEPTIDE1,CHEM1,14:R3-1:R2|PEPTIDE1,CHEM1,21:R3-1:R3$$$V2.0), the solubility in water (Solubility in water) was “not well soluble in water”, the Kd (MDM2 (res 2-125)) was < 1000 nM and the Kd (MDM2 (res 2-125); read-out: Kd for Mdm2, 18.8 μM Mdm2 titrated into 500 nM peptide, data could not be fitted (FIG. 9)) was < 1000 nM. It also gave an IC50 (Kallikrein; IC50 for inhibition of kallikrein activity, 0.1 nM kallikrein, 100 μM substrate, 30° C.) of 17000 nM, an IC50 (Kallikrein; IC50 for inhibition of kallikrein, preliminary experiment, restated in Example 3) of ~17000 nM and a Kd ([2]; Kd for BSA, fluorescence anisotropy in PBS) of ~60 nM.

In the case of `CC(C)[C@@H]1NC(=O)[C@@H](NC(=O)[C@@H](N)CO)CSCc2cc3cc(c2)CSC[C@H](NC(=O)[C@H]([C@@H](C)O)NC(=O)[C@H](Cc2c[nH]c4ccccc24)NC(=O)CNC(=O)[C@H](Cc2ccccc2)NC(=O)[C@H](CCCNC(=N)N)NC1=O)C(=O)N[C@@H](CC(=O)O)C(=O)N[C@@H](CC(N)=O)C(=O)N[C@@H](CO)C(=O)N[C@@H](Cc1c[nH]c2ccccc12)C(=O)N[C@@H](Cc1c[nH]cn1)C(=O)NCC(=O)N[C@H](C(=O)N[C@@H](CCCCN)C(=O)NCC(=O)O)CSC3` [PEP48] (HELM PEPTIDE1{S.C.V.R.F.G.W.T.C.D.N.S.W.H.G.C.K.G}|CHEM1{[c1c(C[*:1])cc(C[*:3])cc1C[*:2]]}$PEPTIDE1,CHEM1,2:R3-1:R1|PEPTIDE1,CHEM1,9:R3-1:R2|PEPTIDE1,CHEM1,16:R3-1:R3$$$V2.0), the Kd (MDM2 (res 2-125)) is reported as 500 to 800 nM.

For “Pep48-D3: SCVRFGWTCDNSWHGCKG with C-terminal DDD (control), N-terminal fluorescein or methoxy-coumarin (SCVRFGWTCDNSWHGCKGDDD; cysteine pairing not given here; also: N-terminal fluorescein or methoxy-coumarin)”, the “cell penetration (fluorescent staining within the cell)” value (HCT116 cells) was “not”.

For “Pep48-R3: SCVRFGWTCDNSWHGCKG with C-terminal RRR, N-terminal fluorescein or methoxy-coumarin (SCVRFGWTCDNSWHGCKGRRR; cysteine pairing not given here; also: N-terminal fluorescein or methoxy-coumarin)”, the “cell penetration (fluorescent staining within the cell)” value (HCT116 cells) was “fluorescent staining within the cell”.
